Source: US9650408B2, “Therapeutic agent for hypertension” (SRI INTERNATIONAL, priority 2005, dated 2017)

Experiments:
[1] = test system: spontaneously hypertensive rats (SHRs); test: Blood pressure and heart rate in spontaneously hypertensive rats, tail-cuff method; type: in vivo, rat; settings: 100 mg once a day for seven days; for change in heart rate: FIG. 6 (TAS-108), FIG. 7 (raloxifene)
Protocol: TAS-108 (100 mg) was administered to nine-week-old spontaneously hypertensive rats (SHRs) once a day for consecutive seven days. Before final administration of the test drug, and 30 minutes, one hour, two hours, and four hours after the final administration, blood pressure was measured in a state where heart rate is constant by means of an […] automatic rat/mouse blood pressure measuring apparatus (BP-97A, product of Softron) according to the tail-cuff method (J. Lab. Clin. Med. 1971; 78: 957-962). For comparison, a solvent (0.5% HPMC) or raloxifene, serving as a control drug, was administered in a dose of 100 mg once a day for consecutive seven days.
Percent increase/decrease in blood pressure after final administration of the test drug was obtained on the basis of the blood pressure as measured before final administration of the drug, and the thus-obtained values were compared with one another.

[2] = test system: postmenopausal hypertensive patients; settings: 142±13 mmHg before; cited from earlier work
estrogen receptor α = biological target: T1, estrogen receptor α (Homo sapiens, UniProt P03372); settings: cited from earlier work
T1 sequence (P03372 1-595): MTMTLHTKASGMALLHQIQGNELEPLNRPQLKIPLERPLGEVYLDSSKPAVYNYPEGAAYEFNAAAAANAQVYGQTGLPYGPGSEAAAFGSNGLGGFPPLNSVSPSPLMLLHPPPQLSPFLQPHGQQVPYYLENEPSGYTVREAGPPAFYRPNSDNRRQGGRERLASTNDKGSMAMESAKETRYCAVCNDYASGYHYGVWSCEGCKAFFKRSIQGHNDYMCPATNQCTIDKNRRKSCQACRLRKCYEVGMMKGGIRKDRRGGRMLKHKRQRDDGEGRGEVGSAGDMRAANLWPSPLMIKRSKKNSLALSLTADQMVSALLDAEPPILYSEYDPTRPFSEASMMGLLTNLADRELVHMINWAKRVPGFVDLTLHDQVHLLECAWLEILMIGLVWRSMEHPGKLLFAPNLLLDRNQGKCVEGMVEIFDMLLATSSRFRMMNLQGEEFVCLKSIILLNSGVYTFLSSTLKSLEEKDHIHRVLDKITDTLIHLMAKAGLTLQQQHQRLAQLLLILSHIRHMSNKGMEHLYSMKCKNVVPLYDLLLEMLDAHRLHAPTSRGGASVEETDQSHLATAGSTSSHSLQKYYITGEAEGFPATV

[3] = test system: postmenopausal breast cancer patients; test: Blood pressure in postmenopausal breast cancer patients given oral TAS-108; type: in vivo, human
Protocol: TAS-108 (40 mg, 80 mg, or 120 mg) was orally administered to postmenopausal breast cancer patients (age: 50 to 78) once a day after breakfast for up to eight weeks. Blood pressure was measured in a sitting position before administration on the day of initiation of administration, and two weeks, four weeks, and eight weeks after initiation of administration.

estrogen receptor (ER) = settings: cited from earlier work
[4] = SHR, during the course of measurement, FIG. 7
[5] = SHR, relative to pressure before final administration, FIG. 5

| SMILES | change in heart rate ([1]; SHR) | change in diastolic blood pressure [1, 4] | change in mean blood pressure [1, 4] | change in systolic blood pressure [1, 4] | systolic blood pressure after administration [2] | agonistic effect on estrogen receptor α (estrogen receptor α) | antagonistic effect on estrogen receptor α (estrogen receptor α) | time of maximum percent decrease in blood pressure ([1]; SHR, after final administration, FIG. 5) | reduction of diastolic blood pressure [1, 5] | reduction of mean blood pressure [1, 5] | blood pressure ([1]; all SHRs, one to two hours after final administration) | systolic or diastolic blood pressure ([3]; four hypertensive patients (systolic 140 mmHg or higher or diastolic 90 mmHg or higher), 40, 80 or 120 mg orally once a day, two to four weeks after initiation, FIGS. 1 to 3) | change in blood pressure ([3]; remaining 11 breast cancer patients with normal blood pressure, during the course of administration, FIG. 4) | reduction of systolic blood pressure ([3]; typical hypertensive patient (FIG. 2), four weeks after initiation of administration) | systolic blood pressure after administration ([3]; typical hypertensive patient (FIG. 2), four weeks after initiation, 180 mmHg before administration) | affinity to estrogen receptor (ER) (estrogen receptor (ER)) |
| --- | --- | --- | --- | --- | --- | --- | --- | --- | --- | --- | --- | --- | --- | --- | --- | --- |
| O=C(c1ccc(OCCN2CCCCC2)cc1)c1c(-c2ccc(O)cc2)sc2cc(O)ccc12 [raloxifene, reference compound] | no considerable change | no considerable change | no considerable change | no considerable change | 139±10 mmHg |  |  |  |  |  |  |  |  |  |  |  |
| CCN(CC)Cc1ccc(OCC[C@H]2CCC3C4C(CC[C@@]32C)c2ccc(O)cc2C[C@H]4C)c(OC)c1 (stereo partly drawn) [TAS-108, (7α)-21-[4-[(Diethylamino)methyl]-2-methoxyphenoxy]-7-methyl-19-norpregna-1,3,5(10)-trien-3-ol] | No considerable change in heart rate |  |  |  |  | virtually no agonistic effect | potent antagonistic effect | two hours after administration | 46.9% | 28.6% | blood pressure was reduced | reduced to fall within a normal pressure range | no considerable change in blood pressure | about 40 mmHg | 138 mmHg | strong affinity |
